Assay results reported in article PMC6494935, “Glesatinib, a c-MET/SMO Dual Inhibitor, Antagonizes P-glycoprotein Mediated Multidrug Resistance in Cancer Cells” (Frontiers in Oncology, 2019).

Tests used:
[1] = biological target: T1, P-glycoprotein (P-gp, ABCB1) (Homo sapiens, UniProt P08183); experiment: vanadate-sensitive ATPase stimulation in membrane vesicles; also inhibits [3H]-paclitaxel efflux in KB-C2 cells; format: biochemical; parameters: ABCB1 in membrane vesicles of High Five insect cells
[2] = biological target: T1, P-glycoprotein (P-gp, ABCB1)

T1 sequence (P08183 whole entry): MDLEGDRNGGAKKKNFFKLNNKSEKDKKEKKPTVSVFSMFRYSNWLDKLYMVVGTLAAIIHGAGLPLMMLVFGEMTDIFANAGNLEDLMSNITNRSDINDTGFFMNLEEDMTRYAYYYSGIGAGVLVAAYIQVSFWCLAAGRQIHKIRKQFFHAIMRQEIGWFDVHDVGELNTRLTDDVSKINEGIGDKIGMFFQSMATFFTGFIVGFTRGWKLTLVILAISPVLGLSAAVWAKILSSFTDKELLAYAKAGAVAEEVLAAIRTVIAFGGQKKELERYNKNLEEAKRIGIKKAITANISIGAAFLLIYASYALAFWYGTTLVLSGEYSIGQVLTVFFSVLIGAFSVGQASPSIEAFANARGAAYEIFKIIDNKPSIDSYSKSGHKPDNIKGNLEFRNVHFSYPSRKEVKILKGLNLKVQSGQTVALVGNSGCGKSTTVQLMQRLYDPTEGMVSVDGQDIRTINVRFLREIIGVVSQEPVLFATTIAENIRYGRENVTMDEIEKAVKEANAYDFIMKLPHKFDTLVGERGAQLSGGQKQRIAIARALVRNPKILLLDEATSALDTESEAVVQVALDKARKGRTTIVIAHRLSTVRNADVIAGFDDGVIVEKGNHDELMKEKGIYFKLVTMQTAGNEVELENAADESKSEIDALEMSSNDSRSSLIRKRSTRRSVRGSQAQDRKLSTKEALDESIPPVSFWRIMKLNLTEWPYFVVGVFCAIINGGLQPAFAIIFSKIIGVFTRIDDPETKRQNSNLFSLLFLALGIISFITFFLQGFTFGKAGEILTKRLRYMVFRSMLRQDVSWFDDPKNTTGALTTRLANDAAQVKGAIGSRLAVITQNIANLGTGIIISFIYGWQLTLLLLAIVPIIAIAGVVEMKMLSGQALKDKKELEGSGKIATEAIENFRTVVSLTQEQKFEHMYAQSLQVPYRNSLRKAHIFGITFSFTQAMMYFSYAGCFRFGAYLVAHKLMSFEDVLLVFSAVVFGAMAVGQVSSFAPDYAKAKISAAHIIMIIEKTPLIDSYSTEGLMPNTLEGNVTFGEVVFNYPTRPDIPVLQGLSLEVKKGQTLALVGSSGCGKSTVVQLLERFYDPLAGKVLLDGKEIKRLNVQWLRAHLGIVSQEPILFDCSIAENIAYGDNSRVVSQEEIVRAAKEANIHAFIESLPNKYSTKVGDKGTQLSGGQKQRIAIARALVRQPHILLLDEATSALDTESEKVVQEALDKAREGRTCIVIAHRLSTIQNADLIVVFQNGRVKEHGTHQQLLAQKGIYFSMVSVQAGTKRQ

SMILES | EC50 [1] [µM] | [3H]-paclitaxel accumulation and efflux in KB-C2 vs parental KB-3-1 cells [2]
COCCNCc1ccc(-c2cc3nccc(Oc4ccc(NC(=S)NC(=O)Cc5ccc(F)cc5)cc4F)c3s2)nc1 [glesatinib] | 3.2 | 
CC(=O)O[C@H]1C(=O)[C@@]2(C)[C@H]([C@H](OC(=O)c3ccccc3)[C@]3(O)C[C@H](OC(=O)[C@H](O)[C@@H](NC(=O)c4ccccc4)c4ccccc4)C(C)=C1C3(C)C)[C@]1(OC(C)=O)CO[C@@H]1C[C@@H]2O [paclitaxel] |  | While in P-gp overexpressing KB-C-2 cells, [^3H]-paclitaxel accumulation decreased significantly as shown in Figures 4A,C.
